From PubChem BioAssay AID602426 (Sanford-Burnham Center for Chemical Genomics, 2012) come the findings set out here.

This test has as its target Neurotensin receptor type 1 (Homo sapiens) (UniProt P30989). The test is described as follows: NTR1 agonists, beta-arrestin spot formation, SAR follow-up, imaging, image-based, set 4 (AID 602426). The note with it: NTR1-U2OS beta-arrestin-GFP spot imaging.

By EC50 is commonly meant the midpoint of the concentration-response curve.

Chain of Neurotensin receptor type 1 (Homo sapiens) (P30989 whole entry, looked up): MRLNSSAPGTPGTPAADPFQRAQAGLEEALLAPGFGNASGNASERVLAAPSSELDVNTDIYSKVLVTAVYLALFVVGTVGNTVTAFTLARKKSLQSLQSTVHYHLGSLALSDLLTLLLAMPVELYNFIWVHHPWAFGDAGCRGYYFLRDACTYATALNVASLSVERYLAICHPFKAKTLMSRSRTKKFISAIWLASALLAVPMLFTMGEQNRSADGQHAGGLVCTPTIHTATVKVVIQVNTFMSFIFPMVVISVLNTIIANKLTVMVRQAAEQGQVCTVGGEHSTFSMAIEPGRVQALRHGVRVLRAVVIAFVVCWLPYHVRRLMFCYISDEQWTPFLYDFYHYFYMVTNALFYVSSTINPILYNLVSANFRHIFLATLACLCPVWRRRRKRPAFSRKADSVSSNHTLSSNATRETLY

As for `COc1cccc(OC)c1-c1cc(C(=O)N[C@@H](CC(C)C)C(=O)O)nn1-c1ccnc2cc(Cl)ccc12`, the half-maximal effective concentration (EC50) is 925 nM.
